Values after ≈ are worked out from the molar mass of the structure shown.
Key:
Test in all cases: ≥ marks a high value that may be exact or a test limit, other limits are often not marked, values filed in µg/mL are converted to µM
Enterococcus faecalis = test system: Enterococcus faecalis
Escherichia coli W3110 = test system: Escherichia coli W3110
[1] = test system: Pseudomonas aeruginosa PAK
Staphylococcus aureus = test system: Staphylococcus aureus
[2] = test system: Streptococcus gordonii Challis DL1
[3] = test system: Streptococcus mitis ATCC 903
[4] = test system: Streptococcus mutans UA159
[5] = test system: Streptococcus sanguinis NY101
[6] = test system: Streptococcus sobrinus ATCC 33478
[7] = test system: Candida albicans TIMM 1768
[8] = test system: Saccharomyces cerevisiae KCTC 7296
[9] = test system: Trichosporon beigelii KCTC 7707
[10] = test system: Streptococcus gordonii DL1
[11] = test system: Streptococcus mutans comD
Candida albicans = test system: Candida albicans
[12] = test system: Enterobacter cloacae 218R
[13] = test system: Enterococcus faecalis ATCC 29212
[14] = test system: Enterococcus faecalis W61950
[15] = test system: Enterococcus faecium mic80
[16] = test system: Enterococcus faecium t62764
[17] = test system: Escherichia coli ESBL 63103
[18] = test system: Escherichia coli ESBL 64771
Escherichia coli UB1005 = test system: Escherichia coli UB1005
[19] = test system: Klebsiella pneumoniae ESBL 61962
[20] = test system: Klebsiella pneumoniae ESBL 63575
[21] = test system: Pseudomonas aeruginosa 198
Pseudomonas aeruginosa 9 = test system: Pseudomonas aeruginosa 9
[22] = test system: Pseudomonas aeruginosa H1027
[23] = test system: Pseudomonas aeruginosa H1030
[24] = test system: Pseudomonas aeruginosa H103
[25] = test system: Pseudomonas aeruginosa PAO1 H103
[26] = test system: Salmonella enterica serovar Typhimurium
[27] = test system: Staphylococcus aureus ATCC 25923
[28] = test system: Staphylococcus aureus C623
[29] = test system: Staphylococcus epidermidis
[30] = test system: Stenotrophomonas maltophilia ATCC 13637
[31] = test system: Lactococcus lactis subsp. cremoris I116
[32] = test system: Bacillus subtilis KCTC 3068
[33] = test system: Candida albicans KCTC 7965
[34] = test system: Candida tropicalis KCTC 1925
Enterococcus sp. = test system: Enterococcus sp.
[35] = test system: Escherichia coli K-12 594
[36] = test system: Micrococcus luteus KCTC 3063
[37] = test system: Staphylococcus aureus KCTC 1928
[38] = test system: Escherichia coli PCM 2057
[39] = test system: Micrococcus luteus ATCC 4698

## C[C@@H](O)[C@H](NC(=O)[C@H](CO)NC(=O)[C@H](Cc1c[nH]c2ccccc12)NC(=O)[C@H](Cc1c[nH]c2ccccc12)NC(=O)[C@H](CO)NC(=O)[C@H](Cc1cnc[nH]1)NC(=O)[C@H](Cc1c[nH]c2ccccc12)NC(=O)[C@@H](N)Cc1c[nH]c2ccccc12)C(=O)N[C@@H](Cc1c[nH]c2ccccc12)C(N)=O [WWHSWWSTW]
Enterococcus faecalis
  MIC: ≥ 91.8 µM
Escherichia coli W3110
  MIC: ≥ 91.8 µM
[1]
  MIC: ≥ 91.8 µM
Staphylococcus aureus
  MIC: > 91.8 µM
[2]
  MIC: ≥ 91.8 µM
[3]
  MIC: ≥ 91.8 µM
[4]
  MIC: ≥ 91.8 µM
[5]
  MIC: ≥ 91.8 µM
[6]
  MIC: ≥ 91.8 µM

## CC[C@H](C)[C@H](NC(=O)[C@@H](NC(=O)[C@@H](N)CCCNC(=N)N)[C@@H](C)CC)C(=O)N[C@@H](CC(=O)O)C(=O)N[C@@H](CC(C)C)C(=O)N[C@@H](CC(C)C)C(=O)N[C@@H](Cc1c[nH]c2ccccc12)C(=O)N[C@@H](CCCNC(=N)N)C(=O)N[C@H](C(=O)N[C@@H](CCCNC(=N)N)C(=O)N[C@@H](CCCNC(=N)N)C(=O)N1CCC[C@H]1C(=O)N[C@@H](Cc1c[nH]c2ccccc12)C(=O)N[C@@H](CCCCN)C(=O)N1CCC[C@H]1C(=O)N[C@@H](CCCCN)C(=O)N[C@@H](Cc1ccccc1)C(=O)N[C@H](C(=O)N[C@H](C(=O)N[C@H](C(=O)N[C@@H](Cc1c[nH]c2ccccc12)C(=O)N[C@H](C(=O)N[C@H](C=O)CCCNC(=N)N)C(C)C)C(C)C)[C@@H](C)O)C(C)C)C(C)C [RIIDLLWRVRRPWKPKFVTVWVR]
[7]
  MIC: 14.1 µM (≈ 42.5 µg/mL)
[8]
  MIC: 10 µM (≈ 30 µg/mL)
[9]
  MIC: 10 µM (≈ 30 µg/mL)

## NCCCC[C@H](NC(=O)[C@H](Cc1c[nH]c2ccccc12)NC(=O)[C@H](Cc1ccccc1)NC(=O)[C@H](CCCCN)NC(=O)[C@H](CCCCN)NC(=O)[C@@H](N)Cc1ccccc1)C(=O)N[C@@H](Cc1c[nH]c2ccccc12)C(=O)N[C@@H](Cc1ccccc1)C(=O)N[C@@H](CCCN=C(N)N)C(=O)N[C@@H](CCCN=C(N)N)C(=O)N[C@@H](Cc1ccccc1)C(=O)O [FKKFWKWFRRF]
[10]
  MIC: 20 µM (≈ 33.5 µg/mL)
[4]
  MIC: 7 µM (≈ 11.7 µg/mL)
[11]
  MIC: 6.5 µM (≈ 10.9 µg/mL)
[5]
  MIC: ≥ 40 µM

## CC[C@H](C)[C@H](NC(=O)[C@@H](N)CCCCN)C(=O)N[C@@H](Cc1c[nH]c2ccccc12)C(=O)N[C@@H](Cc1c[nH]c2ccccc12)C(=O)N[C@@H](Cc1c[nH]c2ccccc12)C(=O)N[C@@H](Cc1c[nH]c2ccccc12)C(=O)N[C@@H](CCCN=C(N)N)C(=O)N[C@@H](CCCCN)C(=O)N[C@@H](CCCN=C(N)N)C(=O)O [KIWWWWRKR]
Candida albicans
  MIC: 10.6 µM (≈ 15.3 µg/mL)
[12]
  MIC: ≥ 45 µM
[13]
  MIC: 11.8 µM (≈ 17 µg/mL)
[14]
  MIC: ≥ 45 µM
[15]
  MIC: 2.84 µM (≈ 4.1 µg/mL)
[16]
  MIC: 0.692 µM (≈ 1 µg/mL)
[17]
  MIC: 5.75 µM (≈ 8.3 µg/mL)
[18]
  MIC: 2.84 µM (≈ 4.1 µg/mL)
Escherichia coli UB1005
  MIC: 5.3 µM (≈ 7.66 µg/mL)
[19]
  MIC: ≥ 90 µM
[20]
  MIC: 22.1 µM (≈ 32 µg/mL)
[21]
  MIC: 11.8 µM (≈ 17 µg/mL)
Pseudomonas aeruginosa 9
  MIC: 22.1 µM (≈ 32 µg/mL)
[22]
  MIC: 2.84 µM (≈ 4.1 µg/mL)
[23]
  MIC: 5.75 µM (≈ 8.3 µg/mL)
[24]
  MIC: ≥ 42.3 µM
[25]
  MIC: 2.84 µM (≈ 4.1 µg/mL)
[26]
  MIC: 10.6 µM (≈ 15.3 µg/mL)
[27]
  MIC: 2.84 µM (≈ 4.1 µg/mL)
[28]
  MIC: 2.84 µM (≈ 4.1 µg/mL)
[29]
  MIC: 1.3 µM (≈ 1.88 µg/mL)
[30]
  MIC: 1.45 µM (≈ 2.1 µg/mL)

## CC[C@H](C)[C@H](NC(=O)[C@H](CC(C)C)NC(=O)CNC(=O)CNC(=O)[C@@H](NC(=O)[C@H](CCCCN)NC(=O)CNC(=O)[C@H](CC(C)C)NC(=O)[C@@H](NC(=O)[C@H](CC(=O)O)NC(=O)[C@@H](NC(=O)[C@H](CC(C)C)NC(=O)CN)C(C)C)C(C)C)C(C)C)C(=O)N[C@@H](CCCCN)C(=O)N[C@@H](CCCCN)C(=O)N[C@@H](CC(C)C)C(=O)N[C@@H](CC(C)C)C(=O)N1CCC[C@H]1C(N)=O [GLVDVLGKVGGLIKKLLP]
[31]
  MIC: ≥ 32 µM

## CC[C@H](C)[C@H](NC(=O)[C@H](CCCCN)NC(=O)[C@H](CCCCN)NC(=O)[C@H](CC(C)C)NC(=O)[C@H](C)NC(=O)[C@H](CCCN=C(N)N)NC(=O)[C@H](CCCCN)NC(=O)CNC(=O)[C@H](CC(C)C)NC(=O)[C@H](CCCN=C(N)N)NC(=O)[C@H](CC(C)C)NC(=O)[C@H](C)NC(=O)[C@H](CC(C)C)NC(=O)CNC(=O)[C@H](CC(N)=O)NC(=O)[C@H](CC(C)C)NC(=O)[C@H](CC(C)C)NC(=O)CN)C(=O)N[C@H](C(=O)N[C@@H](CCCCN)C(=O)N[C@@H](CCCN=C(N)N)C(=O)N[C@@H](CC(C)C)C(=O)N[C@@H](CS)C(=O)N[C@@H](CCCN=C(N)N)C(=O)O)[C@@H](C)CC [GLLNGLALRLGKRALKKIIKRLCR]
[32]
  MIC: 1.15 µM (≈ 3.12 µg/mL)
[33]
  MIC: 18.5 µM (≈ 50 µg/mL)
[34]
  MIC: 1.15 µM (≈ 3.12 µg/mL)
Enterococcus sp.
  MIC: 9.24 µM (≈ 25 µg/mL)
[35]
  MIC: 1.15 µM (≈ 3.12 µg/mL)
[36]
  MIC: 0.577 µM (≈ 1.56 µg/mL)
[37]
  MIC: 9.24 µM (≈ 25 µg/mL)
Staphylococcus aureus
  MIC: 9.24 µM (≈ 25 µg/mL)

## CC[C@H](C)[C@H](NC(=O)[C@@H](NC(=O)[C@@H](N)CO)C(C)C)C(=O)NCC(=O)N[C@H]1CSSC[C@@H](C(=O)N[C@@H](Cc2ccccc2)C(=O)N[C@H](C(=O)N[C@@H](CCCCN)C(N)=O)C(C)C)NC(=O)[C@@H]2CCCN2C(=O)[C@H](CCCN=C(N)N)NC(=O)[C@@H]2CCCN2C(=O)[C@@H]2CCCN2C(=O)[C@H]([C@@H](C)CC)NC(=O)[C@H](CO)NC(=O)[C@H](CCCCN)NC(=O)[C@H]([C@@H](C)O)NC(=O)[C@H](Cc2c[nH]c3ccccc23)NC1=O [SVIGCWTKSIPPRPCFVK]
[38]
  MIC: ≥ 495 µM
[39]
  MIC: ≥ 74.3 µM

From DBAASP
